Laboratory results: PubChem BioAssay (NCI)
“And” between values parts separate entries of the source, which are not always exact repeats. Equal values may be shown once.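 In this assay, cells in 96-well plates receive the compound at five concentrations for 48 hours. Endpoints are linearly interpolated between the surrounding concentrations. GI50: concentration for 50% inhibition of growth. Definition used: TGI = concentration required for complete inhibition of growth.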

Columns and labels:
Test in all cases: NCI tumour cell line growth inhibition, 48 h
UO-31 renal = test system: UO-31 renal
OVCAR-3 ovarian = test system: OVCAR-3 ovarian
COLO 205 colon = test system: COLO 205 colon
HT29 colon = test system: HT29 colon
EKVX NSCLC = test system: EKVX NSCLC
KM12 colon = test system: KM12 colon
HS 578T breast = test system: HS 578T breast
IGROV1 ovarian = test system: IGROV1 ovarian

SMILES | TGI (UO-31 renal) | TGI (OVCAR-3 ovarian) | TGI (COLO 205 colon) [µM] | TGI (HT29 colon) | TGI (EKVX NSCLC) [µM] | TGI (KM12 colon) [µM] | TGI (HS 578T breast) | TGI (IGROV1 ovarian) [µM] | GI50 (UO-31 renal) | GI50 (OVCAR-3 ovarian) | GI50 (COLO 205 colon) [µM] | GI50 (HT29 colon) [µM] | GI50 (EKVX NSCLC) [µM] | GI50 (KM12 colon) | GI50 (HS 578T breast) [µM] | GI50 (IGROV1 ovarian) [µM]
COc1cc([C@H]2OC[C@@H]3C(c4cc(OC)c5c(c4)OCO5)OC[C@H]23)cc(OC)c1OC (stereo partly drawn) | > 100 µM | > 100 µM | > 100 | > 100 µM | > 100 | > 100 | > 100 µM | > 100 |  |  |  |  |  |  |  | 
COC1=CC(=O)[C@@]2(C)C(C)[C@H](c3ccccc3)[C@H]2C1=O (stereo partly drawn) | > 100 µM | > 100 µM | > 100 | > 100 µM | > 100 | > 100 |  | > 100 |  |  |  |  |  |  |  | 
COc1cc(C(=O)/C=C/c2c[nH]c3ccccc23)cc(OC)c1OC | 11.4 µM | 0.0488 µM | 0.132 | 0.343 µM | > 100 | 11.2 | 30.4 µM | 25.3 | 0.0396 µM | < 0.012 µM | 0.0192 | < 0.0146 | 0.0605 | 0.0217 µM | 0.0208 | 0.0713
COc1cc(F)c(F)c(Nc2ccc(I)cc2F)c1NS(=O)(=O)C1(CC(O)CO)CC1 (stereo not drawn) | 40.2 µM | 36.4 µM | 16.1 | 22.5 µM | 57.2 | 30.9 | 55.4 µM | 34.4 | 10.4 µM | 14.6 µM | 3.43 | 4.5 | 13.4 | 13.3 µM | 10.8 | 10.4
O=C(NCCN1CCOCC1)c1cc2c(Oc3ccc(NC(=O)C4(C(=O)Nc5ccc(F)cc5)CC4)cc3)ccnc2[nH]1 | > 32.9 µM | > 85.7 µM | > 48.7 | 18.7 µM | > 100 | > 40.9 | > 71.1 µM | > 100 | 1.15 µM | 19 µM | 4.48 | 3 | 10.3 | 0.412 µM | 1.32 | 2.32
OC[C@H]1C[C@](O)(c2ccccc2Cl)[C@@H](c2ccccc2Cl)O1 | 57.4 µM | 47.5 µM | 34.6 | 42.1 µM | 52.2 | 64.8 | 38.4 µM | 30.5 | 23 µM | 19.5 µM | 14.7 | 17.2 | 19.2 | 25.4 µM | 16.3 | 10.8
Cc1cc2c3ccccc3n3c2c2c1OC1(C)CCC(C2C1)C3(C)C (stereo not drawn) | > 25 µM | > 25 µM | > 25 | > 25 µM |  | > 25 |  | > 25 |  |  |  |  |  |  |  | 
O=C1c2c(c3c4ccccc4n(CC4CO4)c3c3[nH]c4ccccc4c23)C(=O)N1Cc1ccccc1 (stereo not drawn) | > 100 µM | > 100 µM |  | > 100 µM |  | > 100 |  | > 100 |  |  |  |  |  |  |  | 
COc1cccc(/C=C\C(=O)c2ccccc2)c1 | 5.96 µM | 13.4 µM | 40.8 | 17.5 µM |  | 4.91 | 27.7 µM | 21.2 | 2.18 µM | 3.04 µM | 7.82 | 3.65 |  | 2.3 µM | 4.15 | 3.19
CC1(C)C2CC(=O)C1(C)C(OCc1ccccc1)C2Br (stereo not drawn) | 75.1 µM and > 100 µM | 37.1 µM and > 100 µM |  | 32.2 µM and 71.3 µM | > 100 | > 100 | 68.2 µM and 58.8 µM | > 100 | 29.5 µM and 62 µM | 19.3 µM and 53.4 µM |  |  |  | 31.4 µM and 63 µM | 13.4 | 
COC(=O)[C@]12CC[C@@H](C)[C@H](C)[C@@H]1C1=CC[C@@H]3[C@@]4(C)C[C@@H](OC(C)=O)[C@H](OC(C)=O)[C@@](C)(COC(C)=O)[C@@H]4[C@H](O)C[C@@]3(C)[C@]1(C)CC2 |  | > 100 µM | 6.25 | > 100 µM | > 100 | > 100 | > 100 µM | > 100 |  | 2.3 µM | 0.513 | 0.659 | 2.14 | 1.03 µM | 8.15 | 2.17
COc1ccc2c(Cl)cc(NC(=S)Nc3ccccc3)nc2c1 |  | > 100 µM | > 100 | 44.4 µM | 63.1 | 37.9 | 37.3 µM | 54.3 |  |  |  |  |  |  |  | 
C=C(C)[C@@H]1CC[C@]2(C(=O)O)CC[C@]3(C)[C@H](CC[C@@H]4[C@@]5(C)CCC(N)C(C)(C)[C@@H]5CC[C@]43C)[C@@H]12 (stereo partly drawn) |  | 3.66 µM |  |  |  |  | 5.38 µM | 6.22 |  | 1.9 µM |  |  |  |  | 2.48 | 2.41
COC1=CC(=O)C2(C=C1OC)OC[C@H]1Oc3c(ccc4c3C=CC(C)(C)O4)C(=O)[C@H]12 (stereo partly drawn) | > 100 µM | > 100 µM | > 100 | > 100 µM | > 100 | > 100 |  | > 100 |  |  |  |  |  |  |  | 
O=C(O)CCCCCNCc1cc2cc3c(cc2c2cc(OCc4ccccc4)ccc12)OCO3 | 13.9 µM | 5.06 µM |  | 3.53 µM | 17.9 | 3.19 |  | 10.1 | 4.01 µM | 2.11 µM |  | 1.73 | 4.01 | 1.63 µM |  | 2.96
COC(=O)CC(=O)OC1C[C@@H]2CCC3C(C)(C)CCC[C@]3(C)C23CC[C@@]1(C)C3 (stereo partly drawn) | 39.8 µM | 30.7 µM | 33.9 | 35.1 µM |  | 33.9 |  | 31.8 |  |  |  |  |  |  |  | 
COc1cc(/C=N\Nc2ccccc2)ccc1OC(=O)c1ccccc1 | > 40.2 µM | > 68.9 µM | 25.5 | 17.7 µM |  | > 68.8 | > 100 µM | > 100 | 0.792 µM | 4.19 µM | 6.48 | 3.72 |  | 0.778 µM | 18 | 2.76
CN1C/C(=C\c2ccccc2)C2=NN(C(N)=S)[C@H](c3ccccc3)[C@@H]2C1 | > 100 µM | > 100 µM | > 100 | > 100 µM | > 100 | > 100 |  | > 100 |  |  |  |  |  |  |  | 
O=C(CC1(O)C(=O)Nc2ccccc21)c1cccc(O)c1 (stereo not drawn) | > 100 µM | > 100 µM | > 100 | > 100 µM | > 100 |  |  | > 100 |  |  |  |  |  |  |  | 
O=C1c2ccc3c4c(ccc(c24)C(=O)N1CCCCO)C(=O)N(CCCCO)C3=O | 7.65 µM | 2.31 µM | 2.5 | 14.3 µM |  | 10.7 | 24 µM | 5.87 | 1.87 µM | 0.408 µM | 0.888 | 0.824 |  | 2.27 µM | 5.14 | 2.12
